# From patent publication US8802597B2, “Herbicidal pyrimidines” (E I du Pont de Nemours and Company, priority 2003, dated 2014)
# Key:
# Format in all cases: in vivo
# [1] = test system: barnyardgrass (Echinochloa crus-galli); experiment: Test C flooded paddy test; details: Flood
# Outline: (§1)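 Grow to 2-leaf stage under flood; apply test chemical; maintain in greenhouse 12–14 days alongside controls; evaluate visually on 0–100 scale (100 = complete control).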
# [2] = test system: umbrella sedge (Cyperus difformis); experiment: Test C flooded paddy test; details: Flood, scale 0 to 100
# Outline: as §1
# rice (Oryza sativa) = experiment: Test C flooded paddy test; details: Flood, scale 0 to 100
# Outline: as §1
# [3] = test system: winter barley (Hordeum vulgare); experiment: Test C postemergence; details: for Plant response rating, Barley: scale 0 to 100
# Outline: (§2)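 We sprayed seeded pots preemergence and 2–18 cm seedlings postemergence with test chemicals in a non-phytotoxic solvent mixture including surfactant. Greenhouse plants were visually compared with untreated controls at 12 to 14 days and scored 0 (no effect) to 100 (complete control).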
# [4] = test system: windgrass (Apera spica-venti); experiment: Test C postemergence; details: for Plant response rating, Windgrass: scale 0 to 100
# Outline: as §2
# [5] = test system: wheat (Triticum aestivum); experiment: Test C postemergence; details: for Plant response rating, Wheat: scale 0 to 100
# Outline: as §2
# [6] = test system: downy brome (Bromus tectorum); experiment: Test C postemergence; details: for Plant response rating, Bromegrass, Downy: scale 0 to 100
# Outline: as §2
# wild oat (Avena fatua) = experiment: Test C postemergence; details: for Plant response rating, Oat, Wild: scale 0 to 100
# Outline: as §2
# [7] = test system: canarygrass (Phalaris minor); experiment: Test C postemergence; details: for Plant response rating, Canarygrass: scale 0 to 100
# Outline: as §2
# [8] = test system: Italian ryegrass (Lolium multiflorum); experiment: Test C postemergence; details: for Plant response rating, Ryegrass, Italian: scale 0 to 100
# Outline: as §2
# [9] = test system: blackgrass (Alopecurus myosuroides); experiment: Test C postemergence; details: for Plant response rating, Blackgrass: scale 0 to 100
# Outline: as §2
# [10] = test system: green foxtail (Setaria viridis); experiment: Test C postemergence; details: for Plant response rating, Foxtail, Green: scale 0 to 100
# Outline: as §2
structure (smiles),measurement,setting,value
"CCOC(=O)c1nc(C2CC2)nc(N)c1Cl [Compound 4, ethyl 6-amino-5-chloro-2-cyclopropyl-4-pyrimidinecarboxylate]","Plant response rating, Barnyardgrass","[1]; 62 g ai/ha, scale 0 to 100",0
same,"Plant response rating, Barnyardgrass","[1]; 125 g ai/ha, scale 0 to 100",60
same,"Plant response rating, Barnyardgrass","[1]; 250 g ai/ha, scale 0 to 100",65
same,"Plant response rating, Barnyardgrass","[1]; 500 g ai/ha, scale 0 to 100 (0 no effect, 100 complete control)",85
same,"Plant response rating, Sedge, Umbrella",[2]; 62 g ai/ha,0
same,"Plant response rating, Sedge, Umbrella",[2]; 125 g ai/ha,30
same,"Plant response rating, Sedge, Umbrella",[2]; 250 g ai/ha,65
same,"Plant response rating, Sedge, Umbrella",[2]; 500 g ai/ha,75
same,"Plant response rating, Rice",rice (Oryza sativa); 62 g ai/ha,0
same,"Plant response rating, Rice",rice (Oryza sativa); 125 g ai/ha,40
same,"Plant response rating, Rice",rice (Oryza sativa); 250 g ai/ha,75
same,"Plant response rating, Rice",rice (Oryza sativa); 500 g ai/ha,80
same,"Plant response rating, Barley",[3]; 125 g ai/ha,65
same,"Plant response rating, Barley",[3]; 250 g ai/ha,65
same,"Plant response rating, Barley",[3]; 500 g ai/ha,65
same,plant injury at 62 g/ha,"[3]; Hordeum vulgare, post-emergence, 62 g ai/ha, scale 0 to 100 (0 no effect, 100 complete control), read-out: Barley plant response rating",30%
same,"Plant response rating, Windgrass",[4]; 250 g ai/ha,70
same,"Plant response rating, Windgrass",[4]; 500 g ai/ha,75
same,pest or weed control at 62 g/ha,"[4]; Apera spica-venti, post-emergence, 62 g ai/ha, scale 0 to 100 (0 no effect, 100 complete control), read-out: Windgrass plant response rating",60%
same,pest or weed control at 125 g/ha,"[4]; Apera spica-venti, post-emergence, 125 g ai/ha, scale 0 to 100 (0 no effect, 100 complete control), read-out: Windgrass plant response rating",65%
same,"Plant response rating, Wheat",[5]; 250 g ai/ha,65
same,"Plant response rating, Wheat",[5]; 500 g ai/ha,65
same,plant injury at 62 g/ha,"[5]; Triticum aestivum, post-emergence, 62 g ai/ha, scale 0 to 100 (0 no effect, 100 complete control), read-out: Wheat plant response rating",50%
same,plant injury at 125 g/ha,"[5]; Triticum aestivum, post-emergence, 125 g ai/ha, scale 0 to 100 (0 no effect, 100 complete control), read-out: Wheat plant response rating",60%
same,"Plant response rating, Bromegrass, Downy",[6]; 125 g ai/ha,60
same,"Plant response rating, Bromegrass, Downy",[6]; 250 g ai/ha,65
same,"Plant response rating, Bromegrass, Downy",[6]; 500 g ai/ha,70
same,pest or weed control at 62 g/ha,"[6]; Bromus tectorum, post-emergence, 62 g ai/ha, scale 0 to 100 (0 no effect, 100 complete control), read-out: Bromegrass, Downy plant response rating",45%
same,"Plant response rating, Oat, Wild",wild oat (Avena fatua); 250 g ai/ha,70
same,"Plant response rating, Oat, Wild",wild oat (Avena fatua); 500 g ai/ha,70
same,pest or weed control at 62 g/ha,"wild oat (Avena fatua); Avena fatua, post-emergence, 62 g ai/ha, scale 0 to 100 (0 no effect, 100 complete control), read-out: Oat, Wild plant response rating",60%
same,pest or weed control at 125 g/ha,"wild oat (Avena fatua); Avena fatua, post-emergence, 125 g ai/ha, scale 0 to 100 (0 no effect, 100 complete control), read-out: Oat, Wild plant response rating",65%
same,"Plant response rating, Canarygrass",[7]; 125 g ai/ha,45
same,"Plant response rating, Canarygrass",[7]; 250 g ai/ha,60
same,"Plant response rating, Canarygrass",[7]; 500 g ai/ha,60
same,pest or weed control at 62 g/ha,"[7]; Phalaris minor, post-emergence, 62 g ai/ha, scale 0 to 100 (0 no effect, 100 complete control), read-out: Canarygrass plant response rating",35%
same,"Plant response rating, Ryegrass, Italian",[8]; 250 g ai/ha,65
same,"Plant response rating, Ryegrass, Italian",[8]; 500 g ai/ha,65
same,pest or weed control at 62 g/ha,"[8]; Lolium multiflorum, post-emergence, 62 g ai/ha, scale 0 to 100 (0 no effect, 100 complete control), read-out: Ryegrass, Italian plant response rating",45%
same,pest or weed control at 125 g/ha,"[8]; Lolium multiflorum, post-emergence, 125 g ai/ha, scale 0 to 100 (0 no effect, 100 complete control), read-out: Ryegrass, Italian plant response rating",60%
same,"Plant response rating, Blackgrass",[9]; 125 g ai/ha,65
same,"Plant response rating, Blackgrass",[9]; 250 g ai/ha,70
same,"Plant response rating, Blackgrass",[9]; 500 g ai/ha,70
same,pest or weed control at 62 g/ha,"[9]; Alopecurus myosuroides, post-emergence, 62 g ai/ha, scale 0 to 100 (0 no effect, 100 complete control), read-out: Blackgrass plant response rating",65%
same,"Plant response rating, Foxtail, Green",[10]; 250 g ai/ha,70
same,"Plant response rating, Foxtail, Green",[10]; 500 g ai/ha,75
same,pest or weed control at 62 g/ha,"[10]; Setaria viridis, post-emergence, 62 g ai/ha, scale 0 to 100 (0 no effect, 100 complete control), read-out: Foxtail, Green plant response rating",65%
same,pest or weed control at 125 g/ha,"[10]; Setaria viridis, post-emergence, 125 g ai/ha, scale 0 to 100 (0 no effect, 100 complete control), read-out: Foxtail, Green plant response rating",70%
